Experimental findings from patent US10221426B2, “Constitutively active PYR/PYL receptor proteins for improving plant stress tolerance” (The Regents of the University of California, priority 2009, dated 2019) are described below.

This assay addresses T1, PYL4-HAB1 (Arabidopsis thaliana, UniProt O80920).
T1 construct: BD-PYR/PYL fusion proteins were constructed in the same manner as for BD-PYR1 above; expressed in transfected cells; host or cells: yeast (Y190, as for BD-PYR1)
T1 sequence (O80920 1-207): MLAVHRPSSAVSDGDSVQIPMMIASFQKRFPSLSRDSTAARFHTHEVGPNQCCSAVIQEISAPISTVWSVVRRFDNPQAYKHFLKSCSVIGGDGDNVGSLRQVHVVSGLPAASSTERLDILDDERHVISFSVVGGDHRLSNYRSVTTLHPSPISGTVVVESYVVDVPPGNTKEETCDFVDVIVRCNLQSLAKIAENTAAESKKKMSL
T1 sequence (Q9CAJ0 23-511 partner): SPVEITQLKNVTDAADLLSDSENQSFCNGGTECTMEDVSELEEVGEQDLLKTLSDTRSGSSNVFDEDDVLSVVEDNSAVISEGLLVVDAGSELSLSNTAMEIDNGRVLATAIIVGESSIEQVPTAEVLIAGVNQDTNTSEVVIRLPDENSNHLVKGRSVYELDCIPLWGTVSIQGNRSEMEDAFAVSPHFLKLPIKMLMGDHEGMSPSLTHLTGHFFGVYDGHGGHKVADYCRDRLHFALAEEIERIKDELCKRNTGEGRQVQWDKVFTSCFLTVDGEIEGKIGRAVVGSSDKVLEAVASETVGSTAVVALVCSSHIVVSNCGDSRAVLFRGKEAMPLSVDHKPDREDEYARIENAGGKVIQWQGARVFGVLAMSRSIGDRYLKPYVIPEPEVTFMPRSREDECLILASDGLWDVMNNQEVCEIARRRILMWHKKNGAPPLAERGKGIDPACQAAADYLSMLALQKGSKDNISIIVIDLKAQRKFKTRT
Kind of assay: Yeast two-hybrid BD-PYL4 / AD-HAB1 interaction. The class given is cell-based. As to conditions: 10 μM. Here is the method: Given that PYR1 is necessary for pyrabactin action and is a predicted ligand-binding protein, we hypothesized that pyrabactin agonizes ABA signaling by inducing a protein-protein interaction between PYR1 and a downstream effector. To test this, ˜2 million prey cDNA clones were screened against a PYR1 Y2H bait construct on media containing 10 μM pyrabactin. To create the PYR1 Y2H bait construct, the Pyr1 open reading frame was PCR amplified from genomic DNA and cloned to pGem-T easy vector (Promega). After sequence confirmation, the Pyr1 ORF was then cloned in-frame between EcoRI and SalI sites of the pBD-GAL4 Cam vector (Stratagene) and transformed into yeast strain Y190. For the screen, an etiolated seedling cDNA library (J. Kim, K., Harter, A., Theologis, Proc Natl Acad Sci USA 94, 11786 (Oct. 28, 1997)) (ABRC stock CD4-22) was used. The cDNA library was first converted from phage to plasmid DNA, yielding 7.6×10^7 transformants. Plasmid DNA prepared from library was then used to transform Y190 as described in the GAL4 Two-Hybrid system manual (Stratagene). For each screen, 40 μg of prey plasmid was transformed into 1 ml of competent Y190 cell harboring bait construct and then grown on SD agar plates lacking His, Leu, and Trp, but containing 15 mM 3-AT and 10 μM pyrabactin. After 4 days incubation at 30° C., well-grown colonies were rescued and interactions validated using filter lift assay or chloroform-agarose overlay method and X-Gal staining. This identified two pyrabactin-dependent hits which sequencing determined encoded cDNAs for the PP2C HAB1, a close relative of the well-characterized ABA response factor ABI1 (A. Saez et al., The Plant Journal 37, 354 (2004); N. Leonhardt et al., THE PLANT CELL 16, 596 (2004)). Next, Y2H strains expressing an AD-HAB1 fusion protein and a BD-PYR1 fusion protein were grown on plates and tested for interactions in response to various compounds, all at 10 μM except for epi-brassinolide (50 nM) and dimethyl sulfoxide (DMSO) (carrier solvent, 1%). […] Thus, PYR1 interacts with HAB1 in a (+)-ABA dependent fashion.
To see if ABA and pyrabactin responsiveness is unique to PYR1, we tested 11 of the 13 PYL proteins as described above, using Y2H strains expressing an AD-HAB1 fusion protein and a BD-PYR/PYL fusion protein (listed at the left of FIG. 3A). BD-PYR/PYL fusion proteins were constructed in the same manner as for BD-PYR1 above. […] Of these, only Pyr1 is highly transcribed in seeds, which likely explains why mutations in Pyr1 cause the seeds to be insensitive to pyrabactin. […] However the interactions of PYLs 5-12 with the PP2Cs are indicative that the entire protein family is likely to share a similar mechanism of action involving PP2C modulation, as we describe below. […]

With `CC1=CC(=O)CC(C)(C)C1(O)/C=C/C(C)=C\C(=O)O` (single isomer, unassigned; (+)) [(+)-ABA], the “PYL4-HAB1 interaction by X-gal stain” value was “respond”.
As for `CC1=CC(=O)CC(C)(C)[C@@]1(O)/C=C/C(C)=C\C(=O)O` [ABA, Abscisic acid], the entry is “interact with HAB1 in an ABA-stimulated manner”.
